Results taken from patent US9211350B2, “Compound with amyloid affinity” (priority 2011, dated 2015).

Tests used:
[1] = Measurement of partition coefficient based on the octanol extraction method; assay type: physicochemical; conditions: 1-octanol/water; average of 200 μL, 400 μL and 800 μL samples
Procedure: Partition coefficients based on the octanol extraction method (hereinafter referred to as log Poctanol) were measured, which are generally known as an indicator of permeability of compounds through the blood-brain barrier (hereinafter referred to as BBB).
Compound 1, Compound 2, Compound 3 and Compound 4 were adjusted to about 1 MBq/mL respectively using a water saturated 1-octanol solution to obtain sample solutions. Each sample solution in an amount of 30 μL was added to three microtubes. The three microtubes to which each sample solution was added were supplemented with both water saturated 1-octanol and 1-octanol saturated water so as to make the volume to be 200 μL, 400 μL or 800 μL, respectively (referred to as 200 μL sample, 400 μL sample and 800 μL sample, respectively). Each microtube was subjected to stirring, and then was shaken for 5 minutes (20 to 25±2° C., 20 rpm/min). Next, the mixture in each microtube was centrifuged (23° C., 3000 g×20 min.) with a centrifuge (type: T2-MC, manufactured by BECKMAN), and then 50 μL each of the octanol layer and the water layer was obtained, and subjected to measurement of radioactivity with an Autowell Gamma system (Type: ARC-7001, manufactured by Aloka). Using the obtained count, log Poctanol was calculated in accordance with the following equation (1). Meanwhile, the value of log Poctanol was an average value of the values which were respectively calculated for the 200 μL sample, the 400 μL sample and the 800 μL sample.

amyloid aggregates = assay: In vitro binding test with gray matter and white matter homogenate of brain of AD patients; parameters: species or system human; conditions: for Radioactive amount attached to brain tissue of AD patients (%), Gray matter: brain gray matter homogenate of AD patients (amyloid deposition); for Radioactive amount attached to brain tissue of AD patients (%), Gray matter / Radioactive amount attached to brain tissue of AD patients (%), White matter: 100 μg protein/mL, 3 hours, 22° C., relative to added radioactivity; for Radioactive amount attached to brain tissue of AD patients (%), White matter: brain white matter homogenate of AD patients (no amyloid); for Binding property to amyloid deposited in the brain (in words): gray matter versus white matter homogenate of AD patients
Procedure: Binding properties to amyloid aggregates of Compound 1, Compound 3, Compound 4, Compound 5 and [^123I]-IMPY were evaluated by the following in vitro binding test.
The assay was conducted using a gray matter homogenate of brain of AD patients and a white matter homogenate of brain of AD patients, which were prepared from a brain tissue (Frontal lobe) of AD patients commercially available from Analytical Biological Services Inc. (United States).
To each well of a 96-well microplate, 150 μL of a 0.1% BSA-containing 5 mmol/L phosphate buffer saline solution and 50 μL of a sample solution prepared above were added. Two wells were afforded to each sample solution. Of the two wells in which each sample solution was added, one received 50 μL of the brain grey matter homogenate of AD patients, and the other received 50 μL of the brain white matter homogenate of AD patients (final concentration: 100 μg protein/mL), so that the reaction was initiated. After the reaction solution was shaken for 3 hours (22° C., 400 rpm), a glass fiber filter (Multiscreen HTS FB, manufactured by Millipore) was used to filter the reaction solution. The filtrated filter was washed with a 0.1% BSA-containing 5 mmol/L phosphate buffer saline solution (200 μL, 3 times), and then radioactivity remained in the filter was measured with an Autowell Gammma system (type: ARC-7001, manufactured by Aloka). The ratio (%) of the radioactivity attached to the brain grey matter homogenate of AD patients or the brain white matter homogenate of AD patients relative to the added-radioactivity was calculated from the resulting count. Meanwhile, the above was repeated 3 times.

[2] = tested on: amyloid in brain of AD patients; assay: Autoradiography of brain slice of AD patients; assay type: binding, human; conditions: 5 μm brain slice of AD patients, 10 kBq/mL, compared with immunostaining by anti-amyloid antibody
Procedure: The following experiment was carried out in order to examine whether the compound of the present invention can image amyloid in brain of AD patients.
• (1) A 5 μm thick brain slice of AD patients was prepared from a brain tissue of AD patients available from Analytical Biological Services Inc. (United States). • (2) The brain slice prepared for each test substance was immersed in PBS 3 times in total: 15 minutes, 5 minutes and 5 minutes in this order. Next, it was immersed in a 1% BSA-containing PBS for 30 minutes to conduct hydrophilization. As the test substance, a 1% BSA-containing PBS containing each of Compound 1, Compound 2, Compound 3, Compound 4, Compound 5 and [^123I]-IMPY (radioactive concentration: 10 kBq/mL) was prepared and used. The above hydrophilized brain slice was immersed at room temperature in each of the test substance solutions. Then, it was immersed in a 1% BSA-containing PBS for 5 minutes, next in a PBS for 5 minutes and further in a PBS for 5 minutes to wash the brain slices. The washed brain slice was sufficiently dried, and then exposed to an imaging plate for 16 hours, and then autoradiogram image analysis was carried out by use of a Bio-imaging Analyzer (type: BAS-2500; manufactured by FUJIFILM Corporation) (FIG. 7, FIG. 8, FIG. 9, FIG. 10, FIG. 11, FIG. 12). • (3) Separately, immunostaining at a site of amyloid deposition with an anti-amyloid antibody was carried out using adjacent slices which were subjected to hydrophilization in accordance with the same procedures as the above. Anti-Human Amyloidβ(N) (82E1) Mouse IgG MoAb (Immuno-Biological Laboratories Co., Ltd.) was used as the anti-amyloid antibody, and Anti-Mouse IgG (H+L) Goat IgG Fab′-HRP (Immuno-Biological Laboratories Co., Ltd.) was used as a secondary antibody. The site of amyloid deposition was detected by applying the DAB+(3,3′-diaminobenzidinetetrahydrochloride) substrate kit (Dako) to HRP attached to the secondary antibody (FIG. 13). Results

[3] = Measurement of transferability into brain and clearance (radioactive accumulation in brain); conditions: rats; for Radioactive accumulation per unit weight (% ID/g) in brain, After 2 min. / Radioactive accumulation per unit weight (% ID/g) in brain, After 60 min.: intravenous injection (tail vein); for Radioactive accumulation per unit weight (% ID/g) in brain, After 2 min.: 2 minutes after the injection; for Radioactive accumulation per unit weight (% ID/g) in brain, After 60 min.: 60 minutes after the injection; for Transferability to brain and clearance from brain (in words): intravenous injection, 2 and 60 minutes
Procedure: Using Compound 1, Compound 2, Compound 3, Compound 4 and Compound 5, radioactive accumulation in brain of male Wistar rats (8-week old) was measured.
A solution in which Compound 1, Compound 2, Compound 4 and Compound 5 were respectively dissolved in a physiological saline solution containing 50 mmol/L of L-cysteine hydrochloride was prepared, to obtain a sample solution (radioactive concentration: all 37 MBq/mL). A solution in which Compound 3 was dissolved in a physiological saline solution containing 10% ethanol and 50 mmol/L of L-cysteine hydrochloride was prepared, to obtain a sample solution (radioactive concentration: 37 MBq/mL). The sample solution was injected under non-anesthesia into the tail vein of male Wistar rats (8-week old) (dosage: 0.2 mL, dosed radioactivity: 7.4 MBq equivalent). The rats were sacrificed by decapitating under non-anesthesia to sample bloods and brains 2 and 60 minutes after the injection. Brains were subjected to measurement of mass of brains and further subjected to measurement of radioactivity (hereinafter referred to as A in this Example) with a single channel analyzer (detector type: SP-20 manufactured by OHYO KOKEN KOGYO Co., Ltd.). Further, the radioactivity level of the rest of the whole body including blood was measured in the same manner as above (hereinafter referred to as B in this Example). Using these measurement results, the amount of radioactive accumulation per unit weight of brain (% ID/g) at the respective time points after the dissection were calculated in accordance with the following formula (2).
The same procedure as the above was carried out to calculate the amount of radioactive accumulation per unit weight of brain (% ID/g) at the respective time points after the dissection.
Meanwhile, in this Example, three animals were used for the experiment at the respective time points.

Molecule | logPoctanol value [1] | Radioactive amount attached to brain tissue of AD patients (%), Gray matter (amyloid aggregates) | Radioactive amount attached to brain tissue of AD patients (%), White matter (amyloid aggregates) | Binding property to amyloid deposited in the brain (in words) (amyloid aggregates) | Binding to the site of amyloid deposition on autoradiogram (in words) [2] | Radioactive accumulation per unit weight (% ID/g) in brain, After 2 min. [3] | Radioactive accumulation per unit weight (% ID/g) in brain, After 60 min. [3] | Transferability to brain and clearance from brain (in words) [3]
[123I]c1ccc2nc(-c3ccc(-n4ccnn4)nc3)cn2c1 [Compound 1, [^123I]-6-iodo-2-[2-(1H-1,2,3-triazole-1-yl)pyridine-5-yl]imidazo[1,2-a]pyridine] | 2.10 | 2.59% | 0.48% | have a binding property to amyloid deposited in the brain | binding of the compounds to the site of amyloid deposition confirmed by immunostaining was also be confirmed | 1.226 % ID/g | 0.028 % ID/g | excellent transferability to brain and rapid clearance from brain
[^123I]-6-iodo-2-[2-(2H-1,2,3-triazole-2-yl)pyridine-5-yl]imidazo[1,2-a]pyridine [Compound 2] | 2.05 | – | – | – | binding of the compounds to the site of amyloid deposition confirmed by immunostaining was also be confirmed | 1.160 % ID/g | 0.027 % ID/g | excellent transferability to brain and rapid clearance from brain
[^123I]-6-iodo-2-[2-(1H-1,2,4-triazole-1-yl)pyridine-5-yl]imidazo[1,2-a]pyridine [Compound 4] | 2.23 | 1.13% | 0.17% | have a binding property to amyloid deposited in the brain | binding of the compounds to the site of amyloid deposition confirmed by immunostaining was also be confirmed | 1.287 % ID/g | 0.056 % ID/g | excellent transferability to brain and rapid clearance from brain
[^123I]-6-iodo-2-[2-(1H-imidazole-1-yl)pyridine-5-yl]imidazo[1,2-a]pyridine [Compound 3] | 1.91 | 2.00% | 0.83% | have a binding property to amyloid deposited in the brain | binding of the compounds to the site of amyloid deposition confirmed by immunostaining was also be confirmed | 1.186 % ID/g | 0.246 % ID/g | excellent transferability to brain and rapid clearance from brain
[^123I]-6-iodo-2-[2-(pyrazole-1-yl)pyridine-5-yl]imidazo[1,2-a]pyridine [Compound 5] | – | 2.41% | 0.77% | have a binding property to amyloid deposited in the brain | binding of the compounds to the site of amyloid deposition confirmed by immunostaining was also be confirmed | 1.500 % ID/g | 0.079 % ID/g | excellent transferability to brain and rapid clearance from brain
CN(C)c1ccc(-c2cn3cc(I)ccc3n2)cc1 [[^123I]-IMPY, 6-iodo-2-[4′-(N,N-dimethylamino)phenyl]imidazo[1,2-a]pyridine, reference compound] | – | 1.97% | 0.77% | – | binding of the compounds to the site of amyloid deposition confirmed by immunostaining was also be confirmed | 1.644 % ID/g | 0.085 % ID/g | –
